Tests used:
[1] = system: conscious, spontaneously hypertensive rats; assay: Hypotensive effect in conscious, spontaneously hypertensive rats; assay type: in vivo, rat; conditions: gastric route
Procedure: 3) Hypotensive effect in conscious, spontaneously hypertensive rats
The animals receive increasing doses of compound every 90 minutes via the gastric route.
The hypotensive effect is evaluated by means of the percentage of maximum reduction of the average arterial pressure after administration of each dose.

anaesthetized dogs = assay: Therapeutic index: minimum arrhythmogenic dose / dose active on the coronary output, anaesthetized dogs; assay type: in vivo, dog; set-up: minimum arrhythmogenic dose: unit: µg/kg; conditions: for ED (50% increase): Canis lupus familiaris, iv, read-out: dose which is active on the coronary output (increases the basal coronary output by 50%); for minimum arrhythmogenic dose: anaesthetized dogs, intravenous route
Description: (§1) 5) Therapeutic index The therapeutic index is defined as being the ratio between the minimum arrhythmogenic dose and the dose which increases the basal coronary output by 50% (this dose is referred to hereinbelow as the "dose which is active on the coronary output").

[2] = as above; assay type: in vivo, dog; set-up: minimum arrhythmogenic dose: unit: µg/kg; conditions: dog, in vivo; ratio, anaesthetized dogs, intravenous route; read-out: Arrhythmogenic dose/dose which is active on the coronary output (therapeutic index)
Description: as §1

[3] = system: coronary output of anaesthetized dogs; assay: Effect on the coronary output of anaesthetized dogs; assay type: in vivo, dog; conditions: intravenous
Procedure: 4) Effect on the coronary output of anaesthetized dogs
The animals receive increasing doses of compound every 30 minutes via the intravenous route. The effect on the coronary output is evaluated by means of its percentage of maximum variation after each dose.

isolated rat aorta = assay: Anticalcium activity: antagonism of KCl-mediated contraction of isolated rat aorta; conditions: KCl 5×10^-2 M.l^-1 contraction, isolated rat thoracic aorta ring
Procedure: 2) Anticalcium activity by measuring the KCl-mediated antagonism of the contraction of isolated rat aorta
The technique employed uses a ring of arterial vascular tissue taken from rat thoracic aorta and then kept alive in aerated bicarbonated Krebs buffer, and subjected to an initial tension of 2 g. The introduction of potassium chloride KCl (in a volume of 300 μl) at a concentration 5×10^-2 M.l^-1 into the Krebs buffer bath generates a sustained contraction whose amplitude (isometric tension) is antagonized by the addition of a solution of the test compound of increasing concentrations, each addition being made every 5 minutes. The molar concentration of the test compound which reduces by 50% the maximum contraction observed in KCl is then calculated. This concentration is the 50% inhibitory concentration (or IC50).

[4] = molecular target: T1, DHP sites of rat cardiac ventricles (Rattus norvegicus, UniProt P22002); assay: Anticalcium activity: affinity for the DHP sites of rat cardiac ventricles, displacement of (+)-[3H]-PN 200-110; assay type: binding; conditions: displacement of (+)-[3H]-PN 200-110, rat cardiac ventricle membranes, 30 minutes, 30° C.
T1 construct: membrane preparation of the receptors, this preparation being obtained after dissecting the ventricles; from tissue; host or cells: rat cardiac ventricles (membrane preparation)
T1 sequence (P22002 whole entry, other chains not shown): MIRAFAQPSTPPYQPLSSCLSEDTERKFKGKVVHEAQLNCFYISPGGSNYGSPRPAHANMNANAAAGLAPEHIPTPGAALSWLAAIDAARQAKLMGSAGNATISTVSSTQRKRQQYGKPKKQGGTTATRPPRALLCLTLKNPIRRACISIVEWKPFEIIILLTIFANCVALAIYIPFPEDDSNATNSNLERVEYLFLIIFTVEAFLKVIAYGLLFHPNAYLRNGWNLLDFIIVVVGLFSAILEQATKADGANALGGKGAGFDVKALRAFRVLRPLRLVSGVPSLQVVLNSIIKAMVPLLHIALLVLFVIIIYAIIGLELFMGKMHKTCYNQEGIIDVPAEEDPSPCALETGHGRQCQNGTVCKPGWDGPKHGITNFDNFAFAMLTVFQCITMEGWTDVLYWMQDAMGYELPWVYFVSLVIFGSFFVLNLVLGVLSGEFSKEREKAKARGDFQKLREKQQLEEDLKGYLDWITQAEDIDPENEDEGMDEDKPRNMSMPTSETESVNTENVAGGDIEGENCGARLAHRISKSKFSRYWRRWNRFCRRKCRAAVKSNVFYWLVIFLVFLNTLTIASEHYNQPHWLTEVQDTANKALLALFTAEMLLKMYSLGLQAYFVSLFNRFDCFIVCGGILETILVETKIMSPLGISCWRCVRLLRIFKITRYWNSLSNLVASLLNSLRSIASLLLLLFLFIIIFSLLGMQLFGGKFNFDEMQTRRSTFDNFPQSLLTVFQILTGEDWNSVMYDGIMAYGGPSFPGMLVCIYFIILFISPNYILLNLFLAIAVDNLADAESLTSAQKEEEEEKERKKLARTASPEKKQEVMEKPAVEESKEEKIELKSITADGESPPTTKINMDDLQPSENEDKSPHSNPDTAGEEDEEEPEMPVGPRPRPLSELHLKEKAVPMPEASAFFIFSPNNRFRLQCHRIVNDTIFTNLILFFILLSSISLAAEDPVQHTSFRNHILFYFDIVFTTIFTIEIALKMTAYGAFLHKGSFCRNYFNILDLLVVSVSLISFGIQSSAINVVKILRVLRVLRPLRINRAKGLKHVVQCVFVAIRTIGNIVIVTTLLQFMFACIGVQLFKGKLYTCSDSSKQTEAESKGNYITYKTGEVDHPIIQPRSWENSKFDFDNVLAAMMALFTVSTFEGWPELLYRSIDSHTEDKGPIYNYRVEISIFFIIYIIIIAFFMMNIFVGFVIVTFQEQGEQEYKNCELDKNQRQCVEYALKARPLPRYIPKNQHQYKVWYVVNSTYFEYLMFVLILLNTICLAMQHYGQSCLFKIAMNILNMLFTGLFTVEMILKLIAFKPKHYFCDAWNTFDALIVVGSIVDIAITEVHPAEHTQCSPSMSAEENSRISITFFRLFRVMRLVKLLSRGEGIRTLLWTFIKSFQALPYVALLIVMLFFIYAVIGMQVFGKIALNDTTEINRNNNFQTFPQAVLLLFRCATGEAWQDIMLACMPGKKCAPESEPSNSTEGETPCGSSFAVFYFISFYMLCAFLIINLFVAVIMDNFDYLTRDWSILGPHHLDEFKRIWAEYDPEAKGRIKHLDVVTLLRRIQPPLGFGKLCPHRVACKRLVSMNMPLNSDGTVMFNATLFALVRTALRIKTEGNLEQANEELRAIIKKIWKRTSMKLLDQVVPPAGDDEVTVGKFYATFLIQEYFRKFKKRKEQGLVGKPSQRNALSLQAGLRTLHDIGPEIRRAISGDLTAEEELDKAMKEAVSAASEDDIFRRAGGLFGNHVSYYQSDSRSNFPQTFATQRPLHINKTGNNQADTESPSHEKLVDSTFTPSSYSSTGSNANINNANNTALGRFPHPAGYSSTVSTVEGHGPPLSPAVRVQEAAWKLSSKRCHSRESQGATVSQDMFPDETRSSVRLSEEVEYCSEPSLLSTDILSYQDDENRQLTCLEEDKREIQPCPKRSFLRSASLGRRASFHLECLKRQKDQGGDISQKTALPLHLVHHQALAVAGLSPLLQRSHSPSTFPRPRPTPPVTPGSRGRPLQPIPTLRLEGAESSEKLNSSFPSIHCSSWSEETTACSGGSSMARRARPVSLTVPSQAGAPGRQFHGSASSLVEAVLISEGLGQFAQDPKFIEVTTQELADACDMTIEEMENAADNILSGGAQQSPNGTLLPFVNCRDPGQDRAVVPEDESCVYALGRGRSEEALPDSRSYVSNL
T1 sequence (P54290 25-944 partner limits assumed, other chains not shown): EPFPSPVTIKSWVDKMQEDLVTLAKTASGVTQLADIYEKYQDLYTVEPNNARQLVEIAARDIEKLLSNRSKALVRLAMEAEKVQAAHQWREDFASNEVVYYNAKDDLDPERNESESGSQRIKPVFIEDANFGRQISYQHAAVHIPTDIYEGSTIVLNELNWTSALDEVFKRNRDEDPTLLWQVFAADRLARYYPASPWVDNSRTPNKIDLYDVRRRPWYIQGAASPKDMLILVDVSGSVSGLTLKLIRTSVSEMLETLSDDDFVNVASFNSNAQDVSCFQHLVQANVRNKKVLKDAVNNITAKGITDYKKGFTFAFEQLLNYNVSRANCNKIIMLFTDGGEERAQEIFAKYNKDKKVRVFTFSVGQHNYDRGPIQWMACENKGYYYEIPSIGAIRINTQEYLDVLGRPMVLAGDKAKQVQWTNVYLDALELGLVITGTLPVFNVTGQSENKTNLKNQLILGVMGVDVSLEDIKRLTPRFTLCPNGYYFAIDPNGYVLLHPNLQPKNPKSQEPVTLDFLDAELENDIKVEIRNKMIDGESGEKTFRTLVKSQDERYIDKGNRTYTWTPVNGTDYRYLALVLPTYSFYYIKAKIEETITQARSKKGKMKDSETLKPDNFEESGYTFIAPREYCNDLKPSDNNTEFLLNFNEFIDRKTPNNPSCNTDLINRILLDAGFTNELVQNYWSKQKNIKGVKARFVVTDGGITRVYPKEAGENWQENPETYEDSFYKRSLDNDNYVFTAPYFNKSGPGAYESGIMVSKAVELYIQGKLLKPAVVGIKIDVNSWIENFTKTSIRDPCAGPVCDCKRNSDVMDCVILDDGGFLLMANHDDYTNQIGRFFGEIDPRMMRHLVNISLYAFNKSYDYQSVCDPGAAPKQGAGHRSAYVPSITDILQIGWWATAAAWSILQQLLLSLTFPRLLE
T1 sequence (P54290 945-1091 partner limits assumed, other chains not shown): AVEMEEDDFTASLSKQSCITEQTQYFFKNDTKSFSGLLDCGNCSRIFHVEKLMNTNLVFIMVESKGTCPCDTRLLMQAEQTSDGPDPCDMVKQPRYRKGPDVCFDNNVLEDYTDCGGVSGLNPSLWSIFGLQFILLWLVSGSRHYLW
Procedure: 1) Anticalcium activity by measuring the affinity for the DHP sites of rat cardiac ventricles
These membrane preparations are placed in contact with the specific radioactive ligand (+)-[^3 H]-PN 200-110 and the test compound, at different concentrations. The suspension is stirred for 30 minutes at a temperature of 30° C. The reaction is then stopped by filtration using a Harvester-type system. The filter is introduced into a counting flask containing scintillation liquid. The radioactivity present on each filter is then measured by counting in a β-counter with liquid scintillation.
The intensity of the binding to the membrane receptors is defined by the (molar) concentration of the test compound which is needed to displace 50% of the amount of the specific ligand (+)-[^3 H]-PN 200-110 prebound to the DHP sites. This concentration is the IC50 concentration.

[5] = dose +10 mg/kg, increasing doses every 90 minutes
[6] = dose +30 mg/kg, increasing doses every 90 minutes
[7] = dose +10 μg/kg, increasing doses every 30 minutes
[8] = dose +20 μg/kg, increasing doses every 30 minutes
[9] = dose +40 μg/kg, increasing doses every 30 minutes
[10] = dose +80 μg/kg, increasing doses every 30 minutes
[11] = dose +160 μg/kg, increasing doses every 30 minutes
[12] = dose +320 μg/kg, increasing doses every 30 minutes

SMILES	percentage of maximum reduction of the average arterial pressure ([1]; dose 3 mg/kg)	percentage of maximum reduction of the average arterial pressure [1, 5]	percentage of maximum reduction of the average arterial pressure [1, 6]	ED (50% increase) (anaesthetized dogs)	minimum arrhythmogenic dose (anaesthetized dogs)	selectivity ratio [2]	percentage of maximum variation of the coronary output ([3]; dose 5 μg/kg)	percentage of maximum variation of the coronary output [3, 7]	percentage of maximum variation of the coronary output [3, 8]	percentage of maximum variation of the coronary output [3, 9]	percentage of maximum variation of the coronary output [3, 10]	percentage of maximum variation of the coronary output [3, 11]	percentage of maximum variation of the coronary output [3, 12]	IC50 (isolated rat aorta)	IC50 [4]
COC(=O)C1=C(C)NC(C)=C(C(=O)O[C@@H]2CCCN(CCCCC(=O)c3ccc[nH]3)C2)[C@H]1c1cccc([N+](=O)[O-])c1 [Example 3, (4S,3'R)(-)N-[5-(1H-pyrrol-2-yl)-5-oxopentyl]piperid-3'-yl 2,6-dimethyl-4-(3-nitrophenyl)-5-methoxycarbonyl-1,4-dihydropyridine-3-caroxylate]	-12%	-21%	-54%	0.02 mg/kg	640	32	+7%	+30%	+59%	+76%	+84%	+84%	+59%	160 nM	
COC(=O)C1=C(C)NC(C)=C(C(=O)O[C@@H]2CCCN(CCCCC(=O)c3cccs3)C2)[C@H]1c1cccc([N+](=O)[O-])c1 [Example 1, (4S,3'R)(-)N-[4-(2-thienoyl)-butyl]piperid-3'-yl 2,6-dimethyl-4-(3-nitrophenyl)-5-methoxycarbonyl-1,4-dihydropyridine-3-carboxylate]	0%	-22%	-45%	0.02 mg/kg	640	32	12%	+28%	+56%	+72%	+81%	+67%	+64%	130 nM	15 nM
COC(=O)C1=C(C)NC(C)=C(C(=O)O[C@@H]2CCN(CCCC(=O)c3c(OC)cc(OC)cc3OC)C2)[C@H]1c1cccc([N+](=O)[O-])c1 [Example B, reference compound]				0.64 mg/kg	640	1									
COC(=O)C1=C(C)NC(C)=C(C(=O)O[C@@H]2CCN(CCCCC(=O)c3c(OC)cc(OC)cc3OC)C2)[C@H]1c1cccc([N+](=O)[O-])c1 [Example 2, (4S,3'R)(-)N-[4-(2,4,6-trimethoxybenzoyl)butyl]pyrrolidin-3'-yl 2,6-dimethyl-4-(3-nitrophenyl)-5-methoxycarbonyl-1,4-dihydropyridine-3-carboxylate]				0.04 mg/kg	640	16	+16%	+14%	+34%	+78%	+68%	+59%	+33%		7.8 nM
COC(=O)C1=C(C)NC(C)=C(C(=O)O[C@@H]2CCCN(CCCC(=O)c3cccs3)C2)[C@H]1c1cccc([N+](=O)[O-])c1 [Example A, reference compound]				0.64 mg/kg	640	1									
